Read-outs that look alike come from different tables or passages of the source.
Experiments:
[1] = test system: Trypanosome (T. brucei brucei); assay: In-vitro antitrypanosomal efficacy assay (cell growth, resazurin); assay type: cell-based; details: T. brucei cell growth
Procedure: To column 12, 200 μl media was added to provide a no cells control. Plates were then incubated at 37° C. in an atmosphere of 5% CO2 for 69 hours, before the addition of 20 μl of 500 μM rezasurin solution, and a further incubation period of 4 hours. […] Concentration effect curves were fitted using non-linear regression using XLFit 4.2 and EC50 values determined.

[2] = molecular target: T. brucei N-myristoyl transferase (Trypanosoma brucei brucei (strain 927/4 GUTat10.1), UniProt Q388H8); assay: biochemical; assay type: biochemical; details: read-out: IC50 (μM) NMT Enzyme
[3] = value with no enzyme tag in the cell, taken as T. brucei NMT
[4] = value printed without enzyme tag in the NMT Enzyme column (taken as T. brucei NMT)

Chain of T. brucei N-myristoyl transferase (Q388H8 1-446): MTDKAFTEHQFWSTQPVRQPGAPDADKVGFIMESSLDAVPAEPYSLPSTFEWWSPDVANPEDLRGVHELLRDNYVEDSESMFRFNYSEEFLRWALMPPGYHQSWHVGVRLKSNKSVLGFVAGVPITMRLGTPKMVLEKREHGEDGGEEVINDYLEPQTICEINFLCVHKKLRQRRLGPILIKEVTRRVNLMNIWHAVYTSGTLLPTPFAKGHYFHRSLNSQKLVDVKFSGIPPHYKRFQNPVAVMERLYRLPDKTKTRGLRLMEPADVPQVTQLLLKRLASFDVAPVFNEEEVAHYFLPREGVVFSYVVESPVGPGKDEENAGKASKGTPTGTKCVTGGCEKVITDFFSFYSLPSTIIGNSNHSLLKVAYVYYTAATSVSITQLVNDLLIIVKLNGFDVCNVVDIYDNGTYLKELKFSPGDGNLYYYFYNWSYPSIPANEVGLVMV

| Compound | ED50 (μM) T. brucei [1] [µM] | IC50 [2, 3] [µM] | IC50 [2, 4] [µM] |
| --- | --- | --- | --- |
| CNCCNc1cc(-c2cc(Cl)c([S+](=O)([O-])Nc3c(C)nn(C)c3C)c(Cl)c2)ccn1 [DDD86297, 2,6-Dichloro-4-[2-(2-methylamino-ethylamino)-pyridin-4-yl]-N-(1,3,6-trimethyl-1H-pyrazol-4-yl)-benzenesulfonamide] | >1 | 1 |  |
| CC(=O)Nc1ccc([S+](=O)([O-])Nc2c(C)nn(C)c2C)cc1 [DDD71287] | >1 |  | 2.8 |
| COc1cc(C)c([S+](=O)([O-])N2CCCc3ncccc32)c(C)c1C [DDD71600] | >1 |  | 51 |
| Cc1nn(C)c(C)c1N[S+](=O)([O-])c1ccc2c(c1)CC(=O)N2 [DDD71244] | >1 |  | 15.9 |
| COc1cc(C)c([S+](=O)([O-])Nc2onc(C)c2C)c(C)c1C [DDD71284] | >1 |  | > 100 |
| Cc1nn(C)c(C)c1N[S+](=O)([O-])c1ccc(NCC(O)c2ccccc2)nc1 (centres unmarked) [DDD73330] | >1 |  | 2.3 |
| Cc1nn(C)c(C)c1N[S+](=O)([O-])c1ccc(COCCCCN(C)C)cc1 [DDD85650] | >1 | 52.6 |  |
| Cc1nn(C)c(C)c1NS(=O)(=O)c1c(Cl)cc(-c2cccc3c2CCNC3)cc1Cl [DDD87762] | >1 | 2.6 |  |
| Cc1nn(C)c(C)c1N[S+](=O)([O-])c1ccc(NCc2ccc(N3CCOCC3)cc2)nc1 [DDD73475] | 10.5 |  | 0.88 |
| COc1cc(C)c([S+](=O)([O-])Nc2cccnc2C)c(C)c1C [DDD71279] | >1 |  | 10 |
| Cc1nn(C)c(C)c1N[S+](=O)([O-])c1ccc(NC(CO)c2ccccc2)nc1 (centres unmarked) [DDD73333] | >1 |  | > 100 |
| Cc1nn(C)c(C)c1N[S+](=O)([O-])c1ccc(Cn2ccnc2)cc1 [DDD73232] | 18.6 |  | 1.9 |
| COc1cccc(CNc2ccc([S+](=O)([O-])Nc3c(C)nn(C)c3C)cn2)c1 [DDD73329] | >1 |  | 1.6 |
| CCCn1nc(C)c(N[S+](=O)([O-])c2c(C)cc(OC)c(C)c2C)c1C [DDD73491] | >1 |  | 28.4 |
| COc1cc(C)c([S+](=O)([O-])Nc2c(C)nn(CCc3ccccc3)c2C)c(C)c1C [DDD73496] | >1 |  | > 100 |
| Cc1nn(C)c(C)c1N[S+](=O)([O-])c1ccc(NCc2ccn(C)n2)nc1 [DDD73487] | 14.2 |  | 1.2 |

| Compound | ED50 (μM) T. brucei [1] [µM] | IC50 [2, 3] [µM] | IC50 [2, 4] [µM] |
| --- | --- | --- | --- |
| Cc1nn(C)c(C)c1N[S+](=O)([O-])c1ccc(-c2cccc(CCN(C)C)c2)cc1 [DDD90106] | 0.251 | 0.024 |  |
| Cc1cc(Br)ccc1[S+](=O)([O-])Nc1c(C)nn(C)c1C [DDD88316] | >10 | 12.7 |  |
| COc1ccc([S+](=O)([O-])Nc2c(C)nn(C)c2C)cc1OC [DDD71290] | >1 |  | 41 |
| Cc1nn(C)c(C)c1N[S+](=O)([O-])c1ccc2c(c1)OCCN2C [DDD71281] | >1 |  | 16.1 |
| Cc1nn(C)c(C)c1N[S+](=O)([O-])c1ccc(N2CCc3ccccc32)nc1 [DDD85597] | >1 |  | 8 |
| Cc1nn(C)c(C)c1N[S+](=O)([O-])c1ccc(CN2C(=O)CSC2=O)cc1 [DDD73243] | >1 |  | 5.8 |
| Cc1nn(C)c(C)c1N[S+](=O)([O-])c1ccc(COCCn2ccnc2)cc1 [DDD85628] | >1 |  | 11.1 |
| COc1ccc(NCc2ccc([S+](=O)([O-])Nc3c(C)nn(C)c3C)cc2)cc1 [DDD73513] | >1 |  | 5.7 |
| CC(=O)N1CCc2cc([S+](=O)([O-])Nc3c(C)nn(C)c3C)ccc21 [DDD71237] | >1 |  | 8.8 |
| Cc1nn(C)c(C)c1N[S+](=O)([O-])c1ccc(CSCc2ccccc2)cc1 [DDD85599] | >1 |  | 2.4 |
| Cc1nn(C)c(C)c1N[S+](=O)([O-])c1ccc(-c2ccccc2)cc1 [DDD71297] | >1 |  | 10.5 |
| Cc1nn(C)c(C)c1N[S+](=O)([O-])c1ccc(NCc2cccnc2)nc1 [DDD73233] | >1 |  | 2.7 |
| COc1cc(C)c([S+](=O)([O-])Nc2c(C)cc(C)cc2C)c(C)c1C [DDD71645] | >1 |  | > 100 |
| Cc1nn(C)c(C)c1N[S+](=O)([O-])c1ccc(NCCCN2CCN(C)CC2)nc1 [DDD85627] | 0.62 |  | 0.12 |
| Cc1nn(C)c(C)c1N(C1CCCC1)[S+](=O)([O-])c1c(Cl)cc(Br)cc1Cl [DDD85600] | 5.9 |  | 1.9 |

Source: US9156811B2 (priority 2008, dated 2015)
